From patent US20150147273A1, “RADIOLABELED ANALOG(S) OF COMPOUND 0118 AND USE THEREOF IN CONNECTION WITH PET AND/OR SPECT IMAGING TO DETERMINE WHETHER A PHARMACEUTICAL CONTAINING COMPOUND 0118 IS A CANDIDATE CANCER TREATMENT FOR A PATIENT” (KONINKLIJKE PHILIPS N.V., priority 2012, published 2015)

test system: endothelial cell proliferation; assay: endothelial cell proliferation assays; assay type: cell-based; details: not given
From the text: As an alternative to upper-rim substitution, [^18F]-labeled synthons may also be introduced at the lower rim or at an equatorial position of the calix[4]arene core of compound 0118. […] Based on this knowledge, close mimetics of compound 0118 have been produced, where one of the four lower rim substituents is replaced by a substituent containing an alkyne- or azide-functional group, providing access to [^18F]fluoroalkyltriazole-labeled compound 0118 analogues via Huisgen 1,3-dipolar cycloaddition reaction with the corresponding [^18F]fluoroalkynes and [^18F]fluoroazides, respectively.

| Compound | anti-angiogenic potency compared with compound 0118 |
| --- | --- |
| CN(C)CCNC(=O)COc1c2cccc1Cc1cccc(c1OCC(=O)NCCN(C)C)Cc1cccc(c1OCC(=O)NCCN(C)C)Cc1cccc(c1OCCc1cn(CCF)nn1)C2 [compound 5, 25,26,27-Tris-N—(N,N-dimethyl-2-aminoethyl)carbamoylmethoxy-28-{2′-[1-(2-fluorethyl)-1H-[1,2,3]triazo-4-yl]ethyloxy}calix[4]arene] | comparable anti-angiogenic potency |

test system: MA148 human ovarian carcinoma cells; assay: [3H]thymidine incorporation cell proliferation assay (FIG. 15); assay type: cell-based; details: compared with 0118
From the text: Evaluation of the anti-angiogenic activity of lower-rim substituted 0118 analogues (compound 4, compound 5) and equatorially substituted 0118 analogues (compound 13, compound 14, compound 18a, compound 18b, compound 18c).

| Compound | potency of inhibition of MA148 cell proliferation relative to parent compound 0118 |
| --- | --- |
| C#CCCOc1c2cccc1Cc1cccc(c1OCC(=O)NCCN(C)C)Cc1cccc(c1OCC(=O)NCCN(C)C)Cc1cccc(c1OCC(=O)NCCN(C)C)C2 [compound 4, 25,26,27-Tris-N—(N,N-dimethyl-2-aminoethyl)carbamoylmethoxy-28-(3′-butynyloxy)calix[4]arene] | at least equipotent |
| CN(C)CCNC(=O)COc1c2cccc1Cc1cccc(c1OCC(=O)NCCN(C)C)Cc1cccc(c1OCC(=O)NCCN(C)C)Cc1cccc(c1OCCc1cn(CCF)nn1)C2 [compound 5, 25,26,27-Tris-N—(N,N-dimethyl-2-aminoethyl)carbamoylmethoxy-28-{2′-[1-(2-fluorethyl)-1H-[1,2,3]triazo-4-yl]ethyloxy}calix[4]arene] | more potent inhibitor of MA148 cell proliferation |
| C#CCC1c2cccc(c2OCC(=O)NCCN(C)C)Cc2cccc(c2OCC(=O)NCCN(C)C)Cc2cccc(c2OCC(=O)NCCN(C)C)Cc2cccc1c2OCC(=O)NCCN(C)C [compound 13, 25,26,27,28-Tetrakis-N—(N,N-dimethyl-2-aminoethyl)carbamoylmethoxy-2-(prop-2′-yn-1′-yl)calix[4]arene] | at least three times more potent than 0118 |
| CN(C)CCNC(=O)COc1c2cccc1Cc1cccc(c1OCC(=O)NCCN(C)C)C(Cc1cn(CCF)nn1)c1cccc(c1OCC(=O)NCCN(C)C)Cc1cccc(c1OCC(=O)NCCN(C)C)C2 [compound 14, 25,26,27,28-Tetrakis-N—(N,N-dimethyl-2-aminoethyl)carbamoylmethoxy-2-{[1-(2-fluorethyl)-1H-[1,2,3]triazo-4-yl]methyl}calix[4]arene] | at least three times more potent than 0118 |
| CCCC1c2cccc(c2OCC(=O)NCCN(C)C)Cc2cccc(c2OCC(=O)NCCN(C)C)Cc2cccc(c2OCC(=O)NCCN(C)C)Cc2cccc1c2OCC(=O)NCCN(C)C [compound 18b, 25,26,27,28-Tetrakis-N—(N,N-dimethyl-2-aminoethyl)carbamoylmethoxy-2-propylcalix[4]arene] | at least three times more potent than 0118 |
